Among the data in ChEMBL document CHEMBL1125386, “Small atrial natriuretic peptide analogues: design, synthesis, and structural requirements for guanylate cyclase activation” (J Med Chem, 1992) are KL values, retold here.

Assay [1] can be described thus: Binding affinity towards low-affinity site of Atrial natriuretic peptide receptor 1 of rabbit adrenal membrane. Format: tissue-based.
Assay [2] relates to Atrial natriuretic peptide receptor 1 (Oryctolagus cuniculus). As to the kind of experiment: Binding affinity towards the low-affinity site atrionatriuretic peptide receptor 1 of rabbit adrenal membrane.

In assay [1], `CC[C@H](C)[C@@H]1NC(=O)[C@@H](CCCN=C(N)N)NC(=O)CNC(=O)CNC(=O)[C@@H](Cc2ccccc2)NC(=O)CNC(=O)[C@H](NC(=O)[C@H](CO)NC(=O)[C@@H](N)CO)CSSC[C@H](C(=O)N[C@H](Cc2ccccc2)C(=O)N[C@@H](CCCN=C(N)N)C(=O)O)NC(=O)[C@@H]([C@@H](C)CC)NC(=O)[C@H](CCCN=C(N)N)NC(=O)[C@@H](CC(=O)O)NC1=O` came in with a KL of 620 nM.

As to `CC[C@H](C)[C@@H]1NC(=O)[C@@H](CCCN=C(N)N)NC(=O)CNC(=O)CNC(=O)[C@@H](Cc2ccc(O)cc2)NC(=O)C(C)NC(=O)[C@H](NC(=O)[C@H](CO)NC(=O)[C@@H](N)CO)CSSC[C@H](C(=O)N[C@H](Cc2ccccc2)C(=O)N[C@H](CCCN=C(N)N)C(=O)O)NC(=O)[C@@H]([C@@H](C)CC)NC(=O)[C@H](CCCN=C(N)N)NC(=O)[C@@H](CC(=O)O)NC1=O` (stereo in doubt), in assay [1], the KL is 10000 nM.

For `CC[C@H](C)[C@@H]1NC(=O)[C@@H](CCCN=C(N)N)NC(=O)CNC(=O)CNC(=O)[C@@H](Cc2ccccc2)NC(=O)[C@@H](C)NC(=O)[C@H](NC(=O)[C@H](CO)NC(=O)[C@@H](N)CO)CSSC[C@H](C(=O)N[C@H](Cc2ccccc2)C(=O)N[C@H](CCCN=C(N)N)C(=O)O)NC(=O)[C@@H]([C@@H](C)CC)NC(=O)[C@H](CCCN=C(N)N)NC(=O)[C@@H](CC(N)=O)NC1=O`, in assay [1], the KL came to 540 nM.

As for `CC[C@H](C)[C@@H]1NC(=O)[C@@H](CCCN=C(N)N)NC(=O)CNC(=O)CNC(=O)[C@@H](Cc2ccccc2)NC(=O)CNC(=O)[C@H](NC(=O)[C@H](CO)NC(=O)[C@@H](N)CO)CSSC[C@H](C(=O)N[C@@H](Cc2ccccc2)C(=O)N[C@H](CCCN=C(N)N)C(=O)O)NC(=O)[C@@H]([C@@H](C)CC)NC(=O)[C@H](CCCN=C(N)N)NC(=O)[C@@H](CC(=O)O)NC1=O`, the KL in assay [1] came out at 780 nM.

As for `CC[C@H](C)[C@@H]1NC(=O)[C@H](CCCN=C(N)N)NC(=O)[C@@H](CC(=O)O)NC(=O)[C@H]([C@@H](C)CC)NC(=O)[C@@H](CCCN=C(N)N)NC(=O)CNC(=O)CNC(=O)[C@@H](Cc2ccccc2)NC(=O)CNC(=O)[C@@H](NC(=O)[C@H](CO)NC(=O)[C@@H](N)CO)CSSC[C@@H](C(=O)N[C@H](Cc2ccccc2)C(=O)N[C@@H](CCCCN)C(=O)O)NC1=O`, the KL in assay [1] came to 5900 nM.

The compound `CC[C@H](C)[C@@H]1NC(=O)[C@@H](CCCN=C(N)N)NC(=O)CNC(=O)CNC(=O)[C@@H](C2CCCCC2)NC(=O)[C@H](NC(=O)[C@H](N)Cc2c[nH]cn2)CSSC[C@H](C(N)=O)NC(=O)[C@@H](CCCN=C(N)N)NC(=O)[C@H](Cc2ccccc2)NC(=O)[C@@H]([C@@H](C)CC)NC(=O)[C@H](CCCN=C(N)N)NC(=O)[C@@H](CC(=O)O)NC1=O` gave a KL in assay [1] of 190 nM.

In assay [1], `CC[C@H](C)[C@@H]1NC(=O)[C@@H](CCCN=C(N)N)NC(=O)Cc2ccc(cc2)NC(=O)Cc2ccc(cc2)NC(=O)[C@@H](Cc2ccccc2)NC(=O)C(C)NC(=O)[C@H](NC(=O)[C@H](CO)NC(=O)[C@@H](N)CO)CSSC[C@H](C(=O)N[C@H](Cc2ccccc2)C(=O)N[C@H](CCCN=C(N)N)C(=O)O)NC(=O)[C@@H]([C@@H](C)CC)NC(=O)[C@H](CCCN=C(N)N)NC(=O)[C@@H](CC(=O)O)NC1=O` (stereo in doubt) returned a KL of 1400 nM.

For `CC[C@H](C)[C@@H]1NC(=O)[C@@H](CCCN=C(N)N)NC(=O)CNC(=O)CNC(=O)[C@@H](C2CCCCC2)NC(=O)[C@H](NC(=O)[C@H](N)CCCN=C(N)N)CSSC[C@H](C(=O)O)NC(=O)[C@@H](CCCN=C(N)N)NC(=O)[C@H](Cc2ccccc2)NC(=O)[C@@H]([C@@H](C)CC)NC(=O)[C@H](CCCN=C(N)N)NC(=O)[C@@H](CC(=O)O)NC1=O`, the KL in assay [2] amounted to 460 nM.

`CC[C@H](C)[C@@H]1NC(=O)[C@@H](CCCN=C(N)N)NC(=O)CNC(=O)CNC(=O)[C@@H](Cc2ccccc2)NC(=O)C(C)NC(=O)[C@H](NC(=O)[C@H](CO)NC(=O)[C@@H](N)CO)CSSC[C@H](C(=O)N2CC(C(=O)N[C@H](CCCN=C(N)N)C(=O)O)Cc3ccccc32)NC(=O)[C@@H]([C@@H](C)CC)NC(=O)[C@H](CCCN=C(N)N)NC(=O)[C@@H](CC(=O)O)NC1=O` (stereo in doubt) returned a KL in assay [2] of 960 nM.
